We go through 2 compounds from patent publication US9206159B2, “Piperazine-piperidine compounds as hepatitis C virus inhibitors” (Theravance Biopharma R&D IP, LLC, priority 2012, dated 2015).

Bounds are passed on as bounds.

The subject of assay [1] is HCV genotype 1b replicon cell line. As to the kind of experiment: HCV Genotype 1b Replicon Assay. It counts as cell-based, hepatitis C virus. The conditions noted are these: Hepatitis C virus, Huh-7, Huh7 cell background, Renilla luciferase readout, 48 hours, read-out: Genotype 1b (pEC50 class) (converted). From the text:
Assay 1: HCV Genotype 1b Replicon Assay
The HCV genotype 1b replicon cell line was obtained from Apath LLC (Brooklyn, N.Y.) (APC144; Huh7 cell background). This subgenomic replicon contains the N-terminus of the HCV core protein fused to the neomycin-resistance selectable marker. The EMCV IRES lies downstream and drives expression of humanized Renilla luciferase fused to the non-structural proteins NS3-NS5B. This cell line was used to determine compound potency using the luciferase activity readout as a measurement of compound inhibition of replicon levels.
Cells were grown at 37° C. in a 5% CO2 humidified incubator in DMEM (Invitrogen) with 10% FBS (HyClone), 1×NEAA (Invitrogen), 1× Pen-Strep (Invitrogen), and 500 μg/mL G418 (Invitrogen). On day 1 of the assay, cells were plated at 10,000 cells/well in white 96-well tissue culture plates (Costar) in 200 μL media lacking G418. Four hours later, once the cells have adhered, the media was removed and replaced with media (no G418) containing dose-responses of test compounds. Compounds were initially diluted in DMSO and then diluted another 200× in media to bring the final DMSO concentration down to 0.5%. The cells were incubated with test compounds for 48 hours. At the end of the incubation period, media and compound were removed from the plates and the luciferase activity was determined using Promega Renilla-Glo reagents.
To analyze the data, the luciferase activity was plotted vs. the compound concentration, and EC50 values were determined from a 4-parameter robust fit model with the GraphPad Prism software package (GraphPad Software, Inc., San Diego, Calif.). Results are expressed as the negative decadic logarithm of the EC50 value, pEC50.
Test compounds having a higher pEC50 value in this assay show greater inhibition of HCV genotype 1b replication.

The test system of assay [2] is HCV genotype 1a replicon cell line. As to the kind of experiment: HCV Genotype 1a Replicon Assay. Type of assay: cell-based, hepatitis C virus. The note with it: Hepatitis C virus, Huh7.5 cell background, NS3-specific protease activity in lysates, 48 or 72 hours, read-out: Genotype 1a (pEC50 class) (converted). An outline of the steps:
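Huh7.5-based subgenomic genotype 1a replicon cells, plated without G418, exposed to compound dose-responses (0.5% DMSO final) for 48 or 72 h at 37 °C. Lysate NS3/4a protease activity read with 15 μM FRET substrate, 20 min at 37 °C (Ex 340/Em 509 nm); EC50 from 4-parameter fit.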

As for `COC(=O)N[C@H](C(=O)N1C[C@@H](C)C[C@H]1c1nc2c(ccc3cc(-c4ccc(NC(=O)N5CCN(C6CCN(C(=O)C7CC7)CC6)CC5)cc4OC(F)(F)F)ccc32)[nH]1)C(C)C` [Example 16, ((S)-1-{(2S,4S)-2-[7-(4-{[4-(1-Cyclopropanecarbonyl-piperidin-4-yl)-piperazine-1-carbonyl]-amino}-2-trifluoromethoxy-phenyl)-3H-naphth[1,2-d]imidazol-2-yl]-4-methyl-pyrrolidine-1-carbonyl}-2-methyl-propyl)-carbamic acid methyl ester], the EC50 in assay [1] and in assay [2] was < 0.1 nM in each case.
As to `COC(=O)N[C@H](C(=O)N1C[C@@H](C)C[C@H]1c1nc(-c2ccc(-c3ccc(NC(=O)N4CCC(N5CCN(C(=O)C(C)(C)C)CC5)CC4)cc3OC(F)(F)F)cc2)c[nH]1)C1CCOCC1` [Example 17, [(S)-2-((2S,4S)-2-{4-[4′-({4-[4-(2,2-Dimethyl-propionyl)-piperazin-1-yl]-piperidine-1-carbonyl}-amino)-2′-trifluoromethoxy-biphenyl-4-yl]-1H-imidazol-2-yl}-4-methyl-pyrrolidin-1-yl)-2-oxo-1-(tetrahydro-pyran-4-yl)-ethyl]-carbamic acid methyl ester], the results for the EC50 in assay [1] and in assay [2] were < 0.1 nM and 0.1 to 1 nM, respectively.
